# Test results reported in ChEMBL document CHEMBL1221215, “A domino effect in antifolate drug action in Escherichia coli” (Nat Chem Biol, 2008).
# Active and inactive are the calls of the source. The calls are words filed in the database; no cut-off is given here.
# Biological target: T1, Dihydrofolate synthase/folylpolyglutamate synthase (Escherichia coli (strain K12)) (UniProt P08192)
# T1 sequence (whole entry): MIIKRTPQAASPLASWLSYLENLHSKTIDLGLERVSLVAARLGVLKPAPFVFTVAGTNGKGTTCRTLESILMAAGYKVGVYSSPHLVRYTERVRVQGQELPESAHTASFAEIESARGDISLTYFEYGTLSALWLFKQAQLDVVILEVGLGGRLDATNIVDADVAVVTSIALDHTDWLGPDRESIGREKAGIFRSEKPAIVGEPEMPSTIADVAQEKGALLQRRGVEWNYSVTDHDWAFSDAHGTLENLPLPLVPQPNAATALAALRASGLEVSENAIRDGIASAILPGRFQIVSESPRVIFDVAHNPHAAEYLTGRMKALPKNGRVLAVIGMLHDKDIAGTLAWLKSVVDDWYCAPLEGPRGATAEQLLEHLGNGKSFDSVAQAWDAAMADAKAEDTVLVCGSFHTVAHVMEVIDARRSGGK
# Assay: Inhibition of Escherichia coli K-12 recombinant His-tagged folylpoly-gamma-glutamate synthetase expressed in Escherichia coli BL21 at 200 uM LC-MS/MS method
# Details: NCM3722
row,inhibition,SMILES
1,inactive,CN1c2c([nH]c(N)nc2=O)NCC1CNc1ccc(C(=O)N[C@@H](CCC(=O)O)C(=O)O)cc1 (some centres undefined)
2,Active,Nc1nc(=O)c2c([nH]1)NCC(CNc1ccc(C(=O)N[C@@H](CCC(=O)O)C(=O)O)cc1)=N2
3,inactive,COc1cc(Cc2cnc(N)nc2N)cc(OC)c1OC
4,inactive,Nc1nc(=O)c2nc(CNc3ccc(C(=O)N[C@@H](CCC(=O)O)C(=O)O)cc3)cnc2[nH]1
